Like-named read-outs stand apart in the source and are kept apart here.
Assays:
tumor cells [1] = experiment: MTS proliferation assay (72 h read-out); assay type: cell-based
Outline: (§1)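 Tumour cells (1.5×10^3–10^4 per well) were seeded 24 h before compound addition, then exposed to 0.001–10 μM final compound for 72 h under culture conditions. MTS reagent was added for a further 3 h, absorbance was read at 492 nm, and results were binned into scores A–D.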

[2] = MTS proliferation assay (72 h read-out); assay type: cell-based; conditions: Homo sapiens, MRC5 cells
Outline: as §1

HeLa = experiment: Colony Forming Units (read-out 6 days), HeLa; assay type: cell-based, human; conditions: Homo sapiens, 144 h, colonies containing more than 30 cells, read-out: Colony Forming Units, score based on IC50, HeLa
Method: (§2) Appropriate numbers of cells (100-150 cells, dependent on the cell type) are being seeded out in 1 ml complete medium into 6-well plates and allowed to attach for 48 h. The compounds are added after 48 h in 500 μl solution. The concentrations are in the range of 0.001 μM-3 μM. Control plates receive the same volume of medium containing the appropriate amount of DMSO. The plates are incubated for 5-7 days at cell culture conditions and subsequently scored for growth of colonies (containing more than 30 cells) by using a microscope.

H460 = experiment: Colony Forming Units (read-out 6 days), H460; assay type: cell-based, human; conditions: Homo sapiens, NCI-H460, 144 h, colonies containing more than 30 cells, read-out: Colony Forming Units, score based on IC50, H460
Method: as §2

tumor cells [3] = experiment: Mitochondrial membrane potential, JC-1 (read-out 48 h); assay type: cell-based; conditions: JC-1, 48 h
Outline: (§3)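 Tumor cells were treated with test compounds (adherent cells after 24 h of attachment, suspension cells immediately), medium holding up to 5% DMSO. After 48 h, JC-1 (2-5 μg/ml in added medium) was applied for 30 min. Fluorescence microscopy (FITC/TRITC filters) scored the fraction of cells with dissipated mitochondrial membrane potential as categories A-D.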

[4] = as above; assay type: cell-based; conditions: PBL, JC-1, 48 h
Outline: as §3

tumor cells [5] = experiment: Hoechst 33342 nuclear staining (48 h read-out); assay type: cell-based
Outline: (§4)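 Adherent cells pre-spread 24 h before dosing, suspension cells dosed at seeding; compounds at 0.001 μM-10 μM final, 48 h at culture conditions. Hoechst 33342 (2-5 μg/ml) added for 30 min, then fluorescence microscopy scoring of apoptotic nuclear fraction and apoptosis-specific morphology, reported as scores A-D.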

[6] = Hoechst 33342 nuclear staining (48 h read-out); assay type: cell-based
Outline: as §4

[7] = Homo sapiens, HT-1080, HT1080 cells, read-out: MTS proliferation assay IC50, HT1080
[8] = Homo sapiens, HeLa cells, read-out: MTS proliferation assay IC50, HeLa
[9] = Homo sapiens, Jurkat cells, read-out: MTS proliferation assay IC50, Jurkat
[10] = Jily cells, read-out: MTS proliferation assay IC50, Jily
[11] = Homo sapiens, HeLa cells, read-out: Mitochondrial membrane potential (read-out 48 h) HeLa
[12] = Homo sapiens, Jurkat cells, read-out: Mitochondrial membrane potential (read-out 48 h) Jurkat
[13] = Homo sapiens, MCF7 cells, read-out: Mitochondrial membrane potential (read-out 48 h) MCF7
[14] = Jily cells, read-out: Mitochondrial membrane potential (read-out 48 h) Jily
[15] = Homo sapiens, HeLa cells, read-out: Hoechst 33342 nuclear staining EC50, HeLa
[16] = Homo sapiens, Jurkat cells, read-out: Hoechst 33342 nuclear staining EC50, Jurkat
[17] = Jily cells, read-out: Hoechst 33342 nuclear staining EC50, Jily
[18] = Homo sapiens, MRC5 cells, read-out: Hoechst 33342 nuclear staining EC50, MRC5
[19] = PBL, read-out: Hoechst 33342 nuclear staining EC50, PBL

Compound	IC50 (tumor cells [1]; [7]) [nM]	IC50 (tumor cells [1]; [8]) [nM]	IC50 (tumor cells [1]; [9]) [nM]	IC50 (tumor cells [1]; [10]) [nM]	IC50 [2] [nM]	IC50 (HeLa) [nM]	melting point [°C]	IC50 (H460) [nM]	EC50 (tumor cells [3]; [11]) [nM]	EC50 (tumor cells [3]; [12]) [nM]	EC50 (tumor cells [3]; [13]) [nM]	EC50 (tumor cells [3]; [14]) [nM]	EC50 [4] [nM]	EC50 (tumor cells [5]; [15]) [nM]	EC50 (tumor cells [5]; [16]) [nM]	EC50 (tumor cells [5]; [17]) [nM]	EC50 [6, 18] [nM]	EC50 [6, 19] [nM]
CC(C)Oc1ccccc1C(=O)c1oc2ccc(Cl)cc2c1N [Example 9]	10 to 100	100 to 1000	10 to 100	10 to 100	100 to 1000	10 to 100	110	10 to 100	100 to 1000	10 to 100	100 to 1000	100 to 1000	> 1000	100 to 1000	10 to 100	100 to 1000	100 to 1000	
Cc1ccc(OC(C)C)c(C(=O)c2oc3ccc(Cl)cc3c2N)c1 [Example 16]	10 to 100	10 to 100	< 10	< 10	10 to 100		110 to 112		10 to 100	10 to 100	10 to 100	10 to 100	> 1000	10 to 100	10 to 100	10 to 100	10 to 100	> 1000
CCOc1ccc(Cl)cc1C(=O)c1oc2ccc(Cl)cc2c1N [Example 17]	< 10	10 to 100	< 10	< 10	< 10		140 to 142		10 to 100	10 to 100	10 to 100	10 to 100	> 1000	10 to 100	10 to 100	10 to 100	10 to 100	> 1000
CCOc1ccc(NC(C)=O)cc1C(=O)c1oc2ccc(Cl)cc2c1N [Example 21]	> 1000	> 1000	> 1000	> 1000	> 1000		110 to 112		> 1000	> 1000	> 1000	> 1000	> 1000	> 1000	> 1000	> 1000	> 1000	> 1000
CCOc1cc(OC)c(Br)cc1C(=O)c1oc2ccc(Cl)cc2c1N [Example 23]	> 1000	> 1000	100 to 1000	100 to 1000	> 1000		132 to 133		> 1000	100 to 1000	> 1000	> 1000	> 1000	> 1000	100 to 1000	100 to 1000	> 1000	> 1000
CCOc1c(OC)cccc1C(=O)c1oc2ccc(Cl)cc2c1N [Example 24]	> 1000	> 1000	> 1000	> 1000	> 1000		121 to 124		> 1000	> 1000	> 1000	> 1000	> 1000	> 1000	> 1000	> 1000	> 1000	> 1000
CCOc1c(C)cccc1C(=O)c1oc2ccc(Cl)cc2c1N [Example 25]	> 1000	> 1000	100 to 1000	100 to 1000	> 1000		54		> 1000	100 to 1000	> 1000	100 to 1000	> 1000	> 1000	100 to 1000	100 to 1000	> 1000	> 1000
CCOc1ccc(Cl)cc1C(=O)c1oc2nc(C)ccc2c1N [Example 27]	10 to 100	10 to 100	10 to 100	10 to 100	10 to 100		174 to 176		10 to 100	10 to 100	100 to 1000	10 to 100	> 1000	10 to 100	< 10	10 to 100	> 1000	> 1000
CCOc1ccccc1C(=O)c1oc2nc(C)ccc2c1N [Example 28]	100 to 1000	100 to 1000	10 to 100	10 to 100	100 to 1000		156 to 158		100 to 1000	10 to 100	> 1000	100 to 1000	> 1000	100 to 1000	10 to 100	10 to 100	> 1000	> 1000
CCOc1ccccc1C(=O)c1oc2cnc(C)cc2c1N [Example 30]	100 to 1000	100 to 1000	100 to 1000	100 to 1000	> 1000		168		100 to 1000	100 to 1000	> 1000	100 to 1000	> 1000	100 to 1000	100 to 1000	100 to 1000	> 1000	> 1000
CCOc1ccc(F)cc1C(=O)c1oc2cnc(C)cc2c1N [Example 31]	10 to 100	10 to 100	10 to 100	10 to 100	10 to 100		162		100 to 1000	10 to 100	> 1000	10 to 100	> 1000	10 to 100	10 to 100	10 to 100	100 to 1000	> 1000
CCOc1ccccc1C(=O)c1sc2ncccc2c1N [Example 114]	> 1000	> 1000	> 1000	> 1000	> 1000		138 to 142		> 1000	> 1000	> 1000	> 1000	> 1000	> 1000	> 1000	> 1000	> 1000	> 1000
CCOc1ccc(F)cc1C(=O)c1sc2ncc([N+](=O)[O-])cc2c1N [Example 115]	> 1000	> 1000	> 1000	> 1000	> 1000		205		> 1000	> 1000	> 1000	> 1000	> 1000	> 1000	> 1000	> 1000	> 1000	> 1000
CCOc1ccc(F)cc1C(=O)c1sc2ncc(N)cc2c1N [Example 116]	100 to 1000	100 to 1000	10 to 100	10 to 100	100 to 1000		80		100 to 1000	10 to 100	> 1000	10 to 100	> 1000	10 to 100	10 to 100	10 to 100	10 to 100	> 1000
CCOc1ccccc1C(=O)c1sc2ncc(N)cc2c1N [Example 117]	> 1000	> 1000	> 1000	> 1000	> 1000		116		> 1000	> 1000	> 1000	> 1000	> 1000	> 1000	> 1000	> 1000	> 1000	> 1000
CCOc1ccc(C)cc1C(=O)COc1ccc(Cl)cc1C#N [Example 144]	100 to 1000	100 to 1000	10 to 100	10 to 100	100 to 1000		144 to 146		100 to 1000	10 to 100	100 to 1000		> 1000	100 to 1000	10 to 100	10 to 100	100 to 1000	> 1000

Reference: patent US8486996B2, “Aroylfuranes and aroylthiophenes” (Basilea Pharmaceutica AG, priority 2006, dated 2013)
